Measured values: ChEMBL document CHEMBL4507278 (2021)

What was measured:
[1] = target: Mitogen-activated protein kinase kinase kinase kinase 2 (Homo sapiens) (UniProt Q12851); conditions: Compound concentration 1000.0 nM
[2] = target: Activated CDC42 kinase 1 (Homo sapiens) (UniProt Q07912); conditions: Compound concentration 1000.0 nM
[3] = target: Serine/threonine-protein kinase NLK (Homo sapiens) (UniProt Q9UBE8); conditions: Compound concentration 1000.0 nM
[4] = target: Mitogen-activated protein kinase kinase kinase 7 (Homo sapiens) (UniProt O43318); conditions: Compound concentration 1000.0 nM
[5] = target: Protein-tyrosine kinase 6 (Homo sapiens) (UniProt Q13882); conditions: Compound concentration 1000.0 nM
[6] = test system: Receptor-type tyrosine-protein kinase FLT3 (Homo sapiens), P36888 [D835Y]; conditions: Compound concentration 1000.0 nM
[7] = target: Tyrosine-protein kinase receptor Tie-1 (Homo sapiens) (UniProt P35590); conditions: Compound concentration 1000.0 nM
[8] = target: Casein kinase I isoform gamma-3 (Homo sapiens) (UniProt Q9Y6M4); conditions: Compound concentration 1000.0 nM
[9] = target: Serine/threonine-protein kinase 25 (Homo sapiens) (UniProt O00506); conditions: Compound concentration 1000.0 nM
[10] = target: G protein-coupled receptor kinase 4 (Homo sapiens) (UniProt P32298); conditions: Compound concentration 1000.0 nM
[11] = target: Protein kinase C theta type (Homo sapiens) (UniProt Q04759); conditions: Compound concentration 1000.0 nM
[12] = target: Tyrosine-protein kinase Blk (Homo sapiens) (UniProt P51451); conditions: Compound concentration 1000.0 nM
[13] = target: Fibroblast growth factor receptor 2 (Homo sapiens) (UniProt P21802); conditions: Compound concentration 1000.0 nM
[14] = test system: Tyrosine-protein kinase ABL1 (Homo sapiens), P00519 [E255K]; conditions: Compound concentration 1000.0 nM
[15] = target: Casein kinase II subunit alpha' (Homo sapiens) (UniProt P19784); conditions: Compound concentration 1000.0 nM
[16] = target: NT-3 growth factor receptor (Homo sapiens) (UniProt Q16288); conditions: Compound concentration 1000.0 nM
[17] = target: Hepatocyte growth factor receptor (Homo sapiens) (UniProt P08581); conditions: Compound concentration 1000.0 nM
[18] = target: Calcium/calmodulin-dependent protein kinase kinase 1 (Homo sapiens) (UniProt Q8N5S9); conditions: Compound concentration 1000.0 nM
[19] = test system: Epidermal growth factor receptor (Homo sapiens), P00533 [UNDEFINED MUTATION]; conditions: Compound concentration 1000.0 nM
[20] = target: T1, D(4) dopamine receptor (Homo sapiens) (UniProt P21917); conditions: Compound concentration 10.0 uM
T1 sequence (whole entry): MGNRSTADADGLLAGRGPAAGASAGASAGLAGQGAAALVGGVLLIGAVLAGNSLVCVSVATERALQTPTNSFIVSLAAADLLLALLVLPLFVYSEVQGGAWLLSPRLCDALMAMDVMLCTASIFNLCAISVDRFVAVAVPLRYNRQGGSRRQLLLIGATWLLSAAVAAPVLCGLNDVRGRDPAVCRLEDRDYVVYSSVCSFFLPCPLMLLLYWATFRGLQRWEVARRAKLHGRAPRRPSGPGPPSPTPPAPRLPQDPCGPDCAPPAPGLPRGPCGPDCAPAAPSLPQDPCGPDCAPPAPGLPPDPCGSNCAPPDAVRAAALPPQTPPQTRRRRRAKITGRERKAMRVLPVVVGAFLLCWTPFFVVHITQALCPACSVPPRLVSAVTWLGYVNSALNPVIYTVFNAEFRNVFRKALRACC

[21] = target: GABA-A receptor; anion channel (Rattus norvegicus) (UniProt O09028+P15431+P18506+P18508+P19969+P20236+P23574+P23576+P28471+P28473+P30191+P62813+P63079+P63138+Q91ZM7+Q9ES14); conditions: Compound concentration 10.0 uM
[22] = target: T2, Alpha-1D adrenergic receptor (Homo sapiens) (UniProt P25100); conditions: Compound concentration 10.0 uM
T2 sequence (whole entry): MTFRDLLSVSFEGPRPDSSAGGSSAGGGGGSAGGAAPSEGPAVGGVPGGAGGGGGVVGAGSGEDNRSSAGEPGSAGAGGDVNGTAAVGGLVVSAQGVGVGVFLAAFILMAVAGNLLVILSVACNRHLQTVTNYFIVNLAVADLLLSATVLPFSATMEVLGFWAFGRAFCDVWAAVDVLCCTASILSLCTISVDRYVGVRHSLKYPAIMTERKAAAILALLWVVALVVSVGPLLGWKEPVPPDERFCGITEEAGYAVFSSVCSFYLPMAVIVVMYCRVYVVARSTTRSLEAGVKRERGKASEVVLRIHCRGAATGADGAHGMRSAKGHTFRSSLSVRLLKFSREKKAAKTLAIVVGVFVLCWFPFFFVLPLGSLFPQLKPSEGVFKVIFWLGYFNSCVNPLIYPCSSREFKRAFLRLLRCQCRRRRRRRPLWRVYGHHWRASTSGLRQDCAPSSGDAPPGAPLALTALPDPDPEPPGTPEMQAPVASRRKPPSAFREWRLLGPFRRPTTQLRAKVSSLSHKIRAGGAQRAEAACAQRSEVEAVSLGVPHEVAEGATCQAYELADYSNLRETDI

[23] = test system: Receptor-type tyrosine-protein kinase FLT3 (Homo sapiens), P36888 [D835H]; conditions: Compound concentration 1000.0 nM
[24] = target: Serine/threonine-protein kinase WNK1 (Homo sapiens) (UniProt Q9H4A3); conditions: Compound concentration 1000.0 nM
[25] = target: Serine/threonine-protein kinase PAK 6 (Homo sapiens) (UniProt Q9NQU5); conditions: Compound concentration 1000.0 nM
[26] = target: Cyclin-dependent kinase 3 (Homo sapiens) (UniProt Q00526); conditions: Compound concentration 1000.0 nM
[27] = target: Receptor-interacting serine/threonine-protein kinase 4 (Homo sapiens) (UniProt P57078); conditions: Compound concentration 1000.0 nM
[28] = target: Phosphatidylinositol 4-phosphate 5-kinase type-1 alpha (Homo sapiens) (UniProt Q99755); conditions: Compound concentration 1000.0 nM
[29] = target: Receptor tyrosine-protein kinase erbB-2 (Homo sapiens) (UniProt P04626); conditions: Compound concentration 1000.0 nM
[30] = target: Cyclin-dependent kinase 17 (Homo sapiens) (UniProt Q00537); conditions: Compound concentration 1000.0 nM
Cyclin-dependent kinase 17 (Homo sapiens), sequence (Q00537 whole entry, looked up): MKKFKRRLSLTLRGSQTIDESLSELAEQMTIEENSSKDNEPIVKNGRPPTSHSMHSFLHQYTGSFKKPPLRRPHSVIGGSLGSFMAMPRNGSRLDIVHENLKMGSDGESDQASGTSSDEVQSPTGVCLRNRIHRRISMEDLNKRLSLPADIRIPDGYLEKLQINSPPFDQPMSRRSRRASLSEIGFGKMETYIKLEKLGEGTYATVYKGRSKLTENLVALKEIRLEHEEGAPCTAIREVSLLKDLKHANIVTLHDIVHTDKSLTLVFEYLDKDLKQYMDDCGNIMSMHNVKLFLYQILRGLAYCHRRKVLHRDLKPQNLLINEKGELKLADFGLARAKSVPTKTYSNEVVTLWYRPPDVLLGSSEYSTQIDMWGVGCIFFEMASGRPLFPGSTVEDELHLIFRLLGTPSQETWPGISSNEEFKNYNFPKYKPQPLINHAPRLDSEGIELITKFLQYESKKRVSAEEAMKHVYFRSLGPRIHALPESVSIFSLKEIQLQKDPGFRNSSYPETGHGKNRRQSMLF

Fibroblast growth factor receptor 2 (Homo sapiens), sequence (P21802 22-821 limits assumed): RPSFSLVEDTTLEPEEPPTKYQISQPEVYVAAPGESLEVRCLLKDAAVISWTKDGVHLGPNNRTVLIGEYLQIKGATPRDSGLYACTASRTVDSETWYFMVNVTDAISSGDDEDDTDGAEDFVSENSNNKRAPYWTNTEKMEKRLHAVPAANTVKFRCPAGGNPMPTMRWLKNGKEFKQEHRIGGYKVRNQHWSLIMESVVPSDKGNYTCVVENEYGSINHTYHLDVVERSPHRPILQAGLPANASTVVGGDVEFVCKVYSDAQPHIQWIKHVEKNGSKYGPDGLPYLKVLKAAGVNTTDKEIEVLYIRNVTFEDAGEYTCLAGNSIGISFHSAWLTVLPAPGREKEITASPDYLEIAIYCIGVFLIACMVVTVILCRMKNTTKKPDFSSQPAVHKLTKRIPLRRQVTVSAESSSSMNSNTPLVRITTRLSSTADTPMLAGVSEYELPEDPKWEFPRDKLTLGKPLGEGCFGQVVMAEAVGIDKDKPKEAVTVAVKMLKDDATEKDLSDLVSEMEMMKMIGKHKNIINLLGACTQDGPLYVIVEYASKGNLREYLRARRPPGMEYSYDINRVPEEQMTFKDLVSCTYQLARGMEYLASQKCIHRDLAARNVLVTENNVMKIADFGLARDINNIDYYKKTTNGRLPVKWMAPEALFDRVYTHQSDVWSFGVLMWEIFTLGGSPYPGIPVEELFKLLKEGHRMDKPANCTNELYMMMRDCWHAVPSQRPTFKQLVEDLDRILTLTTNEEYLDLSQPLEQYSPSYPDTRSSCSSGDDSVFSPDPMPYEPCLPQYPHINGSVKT
Serine/threonine-protein kinase NLK (Homo sapiens), sequence (Q9UBE8 whole entry): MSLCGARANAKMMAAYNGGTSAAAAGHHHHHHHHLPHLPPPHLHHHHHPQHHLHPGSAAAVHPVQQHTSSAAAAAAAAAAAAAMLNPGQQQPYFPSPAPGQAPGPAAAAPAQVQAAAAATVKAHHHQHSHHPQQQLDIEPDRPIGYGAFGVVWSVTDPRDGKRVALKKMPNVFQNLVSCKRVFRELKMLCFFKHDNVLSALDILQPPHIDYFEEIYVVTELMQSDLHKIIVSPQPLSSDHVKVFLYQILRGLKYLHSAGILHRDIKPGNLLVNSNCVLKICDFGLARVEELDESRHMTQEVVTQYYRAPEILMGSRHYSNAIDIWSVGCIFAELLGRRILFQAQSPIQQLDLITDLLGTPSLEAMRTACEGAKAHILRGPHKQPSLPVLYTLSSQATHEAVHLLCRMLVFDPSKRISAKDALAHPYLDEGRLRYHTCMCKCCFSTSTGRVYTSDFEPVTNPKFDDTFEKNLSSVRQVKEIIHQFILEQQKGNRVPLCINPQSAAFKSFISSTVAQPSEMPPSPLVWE
Casein kinase I isoform gamma-3 (Homo sapiens), sequence (Q9Y6M4 whole entry, looked up, canonical isoform): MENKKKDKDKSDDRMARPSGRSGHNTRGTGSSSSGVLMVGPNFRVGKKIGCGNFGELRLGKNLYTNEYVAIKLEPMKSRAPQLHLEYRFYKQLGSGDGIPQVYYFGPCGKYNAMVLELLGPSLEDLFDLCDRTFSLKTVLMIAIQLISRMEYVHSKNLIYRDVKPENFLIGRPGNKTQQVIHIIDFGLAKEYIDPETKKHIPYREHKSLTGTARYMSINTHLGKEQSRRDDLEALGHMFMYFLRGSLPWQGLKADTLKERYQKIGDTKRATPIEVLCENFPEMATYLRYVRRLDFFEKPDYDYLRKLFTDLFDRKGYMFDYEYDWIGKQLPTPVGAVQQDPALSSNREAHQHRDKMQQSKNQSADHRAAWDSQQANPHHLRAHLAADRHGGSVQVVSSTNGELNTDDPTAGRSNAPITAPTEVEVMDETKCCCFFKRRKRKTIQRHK
Epidermal growth factor receptor (Homo sapiens), P00533 [UNDEFINED MUTATION], sequence (P00533 whole entry, looked up, change not shown): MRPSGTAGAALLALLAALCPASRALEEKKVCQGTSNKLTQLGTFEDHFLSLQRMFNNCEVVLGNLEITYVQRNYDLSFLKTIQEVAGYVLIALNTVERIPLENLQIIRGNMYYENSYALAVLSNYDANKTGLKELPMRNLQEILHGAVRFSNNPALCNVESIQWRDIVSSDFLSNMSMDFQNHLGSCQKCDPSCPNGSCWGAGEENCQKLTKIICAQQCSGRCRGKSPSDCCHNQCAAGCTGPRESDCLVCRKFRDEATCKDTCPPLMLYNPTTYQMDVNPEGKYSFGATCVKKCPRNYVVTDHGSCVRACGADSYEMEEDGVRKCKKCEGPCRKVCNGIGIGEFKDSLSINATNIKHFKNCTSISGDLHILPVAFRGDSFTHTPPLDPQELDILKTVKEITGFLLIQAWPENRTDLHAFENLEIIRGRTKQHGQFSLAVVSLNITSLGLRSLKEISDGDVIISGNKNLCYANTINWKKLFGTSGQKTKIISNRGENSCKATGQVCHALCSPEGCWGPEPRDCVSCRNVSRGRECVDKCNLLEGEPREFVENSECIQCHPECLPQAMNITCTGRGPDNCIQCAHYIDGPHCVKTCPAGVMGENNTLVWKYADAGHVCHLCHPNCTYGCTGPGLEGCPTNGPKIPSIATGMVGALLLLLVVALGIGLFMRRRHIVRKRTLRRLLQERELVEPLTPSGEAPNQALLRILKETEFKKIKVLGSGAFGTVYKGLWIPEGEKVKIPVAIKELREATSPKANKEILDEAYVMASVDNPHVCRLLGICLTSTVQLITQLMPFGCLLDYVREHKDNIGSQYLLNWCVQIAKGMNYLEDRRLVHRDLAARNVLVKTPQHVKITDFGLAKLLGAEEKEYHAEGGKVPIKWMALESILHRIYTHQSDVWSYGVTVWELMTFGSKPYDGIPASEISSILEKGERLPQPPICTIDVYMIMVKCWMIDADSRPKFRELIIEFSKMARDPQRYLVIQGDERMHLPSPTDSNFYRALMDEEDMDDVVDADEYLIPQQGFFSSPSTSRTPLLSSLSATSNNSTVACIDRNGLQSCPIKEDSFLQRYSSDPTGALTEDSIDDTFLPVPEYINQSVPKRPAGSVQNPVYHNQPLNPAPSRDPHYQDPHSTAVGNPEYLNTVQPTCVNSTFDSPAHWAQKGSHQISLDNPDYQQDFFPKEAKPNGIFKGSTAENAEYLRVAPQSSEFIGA
Protein kinase C theta type (Homo sapiens), sequence (Q04759 whole entry, looked up): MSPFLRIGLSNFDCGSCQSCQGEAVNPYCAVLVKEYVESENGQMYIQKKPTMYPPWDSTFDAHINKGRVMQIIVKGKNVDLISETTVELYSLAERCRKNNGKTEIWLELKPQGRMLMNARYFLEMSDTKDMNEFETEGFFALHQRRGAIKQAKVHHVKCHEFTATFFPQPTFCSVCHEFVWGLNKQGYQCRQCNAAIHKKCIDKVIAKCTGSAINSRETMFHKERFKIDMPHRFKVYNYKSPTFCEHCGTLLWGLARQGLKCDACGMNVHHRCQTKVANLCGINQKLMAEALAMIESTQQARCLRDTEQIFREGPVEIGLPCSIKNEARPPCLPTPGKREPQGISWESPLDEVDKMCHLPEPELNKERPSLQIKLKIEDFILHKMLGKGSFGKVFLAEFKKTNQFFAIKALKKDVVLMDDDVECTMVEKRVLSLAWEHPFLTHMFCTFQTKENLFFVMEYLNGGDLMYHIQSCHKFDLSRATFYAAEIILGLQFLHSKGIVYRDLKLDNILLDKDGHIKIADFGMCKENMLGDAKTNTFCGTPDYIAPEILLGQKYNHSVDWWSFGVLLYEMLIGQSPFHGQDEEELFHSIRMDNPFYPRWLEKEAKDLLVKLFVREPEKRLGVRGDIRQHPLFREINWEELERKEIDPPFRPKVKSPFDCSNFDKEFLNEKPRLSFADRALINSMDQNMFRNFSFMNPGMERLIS
Protein-tyrosine kinase 6 (Homo sapiens), sequence (Q13882 whole entry, looked up): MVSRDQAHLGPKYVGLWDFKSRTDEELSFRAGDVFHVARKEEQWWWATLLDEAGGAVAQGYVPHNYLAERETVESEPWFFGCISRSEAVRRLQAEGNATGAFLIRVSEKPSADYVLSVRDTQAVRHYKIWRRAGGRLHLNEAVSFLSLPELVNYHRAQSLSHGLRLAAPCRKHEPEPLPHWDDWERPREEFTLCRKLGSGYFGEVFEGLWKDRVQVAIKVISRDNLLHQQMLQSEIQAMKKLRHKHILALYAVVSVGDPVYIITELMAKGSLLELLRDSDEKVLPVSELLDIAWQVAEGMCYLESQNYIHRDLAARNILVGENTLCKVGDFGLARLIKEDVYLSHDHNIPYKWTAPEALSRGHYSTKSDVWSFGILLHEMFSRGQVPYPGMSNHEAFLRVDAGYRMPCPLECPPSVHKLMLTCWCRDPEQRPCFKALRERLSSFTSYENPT
Casein kinase II subunit alpha' (Homo sapiens), sequence (P19784 whole entry, looked up): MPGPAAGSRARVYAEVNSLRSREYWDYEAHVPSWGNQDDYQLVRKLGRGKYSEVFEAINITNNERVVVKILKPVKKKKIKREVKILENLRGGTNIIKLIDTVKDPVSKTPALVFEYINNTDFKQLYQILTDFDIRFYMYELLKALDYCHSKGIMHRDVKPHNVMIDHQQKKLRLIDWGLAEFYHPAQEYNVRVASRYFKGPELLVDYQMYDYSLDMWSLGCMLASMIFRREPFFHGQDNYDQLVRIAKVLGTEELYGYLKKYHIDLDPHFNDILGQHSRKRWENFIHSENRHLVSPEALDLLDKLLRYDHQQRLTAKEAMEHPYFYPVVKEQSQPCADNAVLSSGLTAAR

CS(=O)(=O)NCC[C@H](NC(=O)c1cncc2c1cnn2-c1ccc(F)cc1)c1ccnc(S(C)(=O)=O)c1 [BI 9307]
inactive: residual activity [1] 91% | residual activity [2] 100% | residual activity [3] 100% | residual activity [4] 100% | residual activity [5] 96% | residual activity [6] 97% | residual activity [7] 100% | residual activity [8] 96% | residual activity [9] 78% | residual activity [10] 100% | residual activity [11] 100% | residual activity [12] 100% | residual activity [13] 100% | residual activity [14] 93% | residual activity [15] 100% | residual activity [16] 100% | residual activity [17] 79% | residual activity [18] 100% | residual activity [19] 71% | inhibition [20] -5.61% | inhibition [21] 10.4% | inhibition [22] -9.49% | residual activity [23] 100% | residual activity [24] 100% | residual activity [25] 100% | residual activity [26] 100% | residual activity [27] 88% | residual activity [28] 100% | residual activity [29] 100% | residual activity [30] 100%

CS(=O)(=O)c1cc(C2(NC(=O)c3cncc4c3cnn4-c3ccc(F)cc3)CC2)ccn1 [BI 639667]
inactive: residual activity [1] 100% | residual activity [2] 100% | residual activity [3] 100% | residual activity [4] 94% | residual activity [5] 80% | residual activity [6] 98% | residual activity [7] 73% | residual activity [8] 100% | residual activity [9] 100% | residual activity [10] 100% | residual activity [11] 99% | residual activity [12] 100% | residual activity [13] 100% | residual activity [14] 100% | residual activity [15] 80% | residual activity [16] 90% | residual activity [17] 100% | residual activity [18] 76% | residual activity [19] 66% | inhibition [20] -1.14% | inhibition [21] 3.75% | inhibition [22] -7.67% | residual activity [23] 100% | residual activity [24] 100% | residual activity [25] 96% | residual activity [26] 81% | residual activity [27] 87% | residual activity [28] 100% | residual activity [29] 100% | residual activity [30] 79%
